The results in this text go back to article PMC12518634, “The noncanonical function of liver-type phosphofructokinase potentiates the efficacy of HDAC inhibitors in cancer” (Signal Transduction and Targeted Therapy, 2025).

Series [1] has as its system TFK1 cells. The series is described as follows: Cell viability assay (CellTiter-Glo, 72 h), GI50. The series is classed as cell-based, human. The conditions noted are these: Homo sapiens. On the procedure:
(§1) Cell viability was assessed using the CellTiter-Glo luminescent cell viability assay (Vazyme, DD1101) following the manufacturer’s instructions. Briefly, 5000 cells per well were seeded into a 96-well white bottom permeable plate. Different concentrations of drugs were added to each well. After 72 h of treatment, a mixture of CellTier reagent and serum-free culture medium was prepared at a 1:1 ratio, and 100 μL of the mixture was added to each well. After incubation at 37 °C for 15 min, the luminescence was measured using a microplate reader (Synergy H1, Biotek). All the experiments were conducted in triplicate. Cell viability (relative luminescence) was defined as the luminescence of the drug treatment relative to that of the vehicle control.
(Cellular ATP, detected with luciferase, serves as a proxy for viable cell number.)

For a further series, the system named is A549 cells. The series is described as follows: Cell viability assay (CellTiter-Glo, 72 h), GI50. The note with it: Homo sapiens, A549, 72 h. The format is cell-based. Here is the method: as §1
The test system of a further series is BT-549 cells. Nature of the series: Cell viability assay (CellTiter-Glo, 72 h), GI50. The format is cell-based. The conditions noted are these: Homo sapiens, BT-549, 72 h. Here is the method: as §1
A further series deals with MCF7 cells. Nature of the series: Cell viability assay (CellTiter-Glo, 72 h), GI50. The format is cell-based. The note with it: Homo sapiens, Fig. 6a. On the procedure: as §1
Another series concerns NCI-H596 cells. Nature of the series: Cell viability assay (CellTiter-Glo, 72 h), GI50. The series is classed as cell-based. The note with it: Homo sapiens, Fig. 6a. On the procedure: as §1
Another series deals with RMG-I cells. The series is described as follows: Cell viability assay (CellTiter-Glo, 72 h), GI50. The series is classed as cell-based. The note with it: Homo sapiens. Here is the method:
as §1

In the next series the test system is TOV21G cells. The series is described as follows: Cell viability assay (CellTiter-Glo, 72 h), GI50. The conditions noted are these: Homo sapiens, Fig. 6a. The format is cell-based. Here is the method:
as §1

Series [2] relates to H3K9ac and H3K27ac in TFK1 cells. The series is described as follows: Immunoblot of H3K9ac and H3K27ac. The note with it: prolonged romidepsin treatment, n = 3 biological replicates, Fig. 3f. The series is classed as cell-based, human. On the procedure: For immunoblotting, cells were washed with ice-cold PBS and lysed in RIPA lysis buffer (supplemented with protease inhibitor and phosphatase inhibitor cocktails Ⅱ and Ⅲ) for 15 min at 4 °C. The protein concentrations of the samples were normalized using a BCA protein assay kit (Thermo). Immunoblots were performed with specific primary antibodies, followed by the addition of a fluorescein-conjugated secondary antibody, after which the proteins were detected via an Odyssey fluorescence scanner (LI-COR).

Series [3] relates to TFK1 cells. The conditions noted are these: PFKL-knockout (sgPFKL) TFK1 cells and PFKL-overexpressing (ovPFKL) HuCCT1 cells; LC-MS/MS of cell lysates; n=3 biological replicates; Supplementary Fig. 5f.
Where [4] appears, read: romidepsin combined with NS or peptide, Fig. 6c.

As usually defined, the GI50 is the concentration giving 50% growth inhibition. Consider `Cc1[nH]c2ccccc2c1CCNCc1ccc(/C=C/C(=O)NO)cc1` [Panobinostat, panobinostat], for which the GI50 was 62.7 nM with TFK1 cells [1] (TFK1, CellTiter-Glo, Fig. 1b); 31 nM in the series with TFK1 cells [1] (TFK1 after interference with LHCGR si-1, Fig. 1f); 28.3 nM in the series on TFK1 cells [1] (TFK1 after interference with LHCGR si-2, Fig. 1f); 42.7 nM in the series with TFK1 cells [1] (TFK1 after interference with NFIA si-1, Fig. 1f); 46.6 nM in the series on TFK1 cells [1] (TFK1 after interference with NFIA si-2, Fig. 1f); 45.1 nM in the series with TFK1 cells [1] (TFK1 after interference with PFKFB1 si-1, Fig. 1f). Also, the GI50 in the series on TFK1 cells [1] (TFK1 after interference with PFKFB1 si-2, Fig. 1f) amounted to 60.6 nM; in the series with TFK1 cells [1] (TFK1 after interference with PFKL si-1, Fig. 1f), 605 nM; with TFK1 cells [1] (TFK1 after interference with PFKL si-2, Fig. 1f), 402 nM; with TFK1 cells [1] (TFK1 expressing sgNC, Fig. 1g), 53.9 nM; with TFK1 cells [1] (TFK1 expressing sgPFKL-1, Fig. 1g), 964 nM; in the series with TFK1 cells [1] (TFK1 expressing sgPFKL-2, Fig. 1g), 644 nM. The concentration for 50% growth inhibition (GI50) in the series on TFK1 cells [1] (TFK1 siNC, Fig. 1f) was determined as 40.1 nM.

As to `C/C=C1\NC(=O)[C@H]2CSSCC/C=C/[C@H](CC(=O)N[C@H](C(C)C)C(=O)N2)OC(=O)[C@H](C(C)C)NC1=O` [Romidepsin, romidepsin], the concentration for 50% growth inhibition (GI50) turned out to be 5.87 nM in the series with A549 cells (Fig. 6a); 7.62 nM in the series with A549 cells (setting [4]); 16.2 nM in the series with BT-549 cells (BT549, romidepsin combined with NS or peptide, Fig. 6c); 13.7 nM with BT-549 cells (BT-549, Fig. 6a); 0.56 nM in the series on MCF7 cells; 0.12 nM in the series with NCI-H596 cells. In addition, the GI50 with RMG-I cells (Fig. 6a) was determined as 5.71 nM; in the series with RMG-I cells (setting [4]) it was 9.48 nM; with TOV21G cells, 0.36 nM. For the same compound, the “acetylation at the H3K9 and K27 histone sites” value in series [2] is listed as “gradual increase in acetylation”. For the same compound, the “cellular uptake of romidepsin with differential expression of PFKL” value in the series with TFK1 cells [3] is listed as “did not affect the cellular uptake”.
